From the kinase profiling compilation of Christmann-Franck et al. (2016)

How the values were obtained:
Test in all cases: Caliper, Mobility shift assay off-chip
[1] = biological target: MAPK1 (human) (UniProt P28482)
[2] = biological target: AKT3 (human) (UniProt Q9Y243)
[3] = biological target: TLK2 (human) (UniProt Q86UE8)
[4] = test system: EGFR (human), P00533 [T790M]
[5] = biological target: MAPKAPK3 (human) (UniProt Q16644)
[6] = biological target: HIPK1 (human) (UniProt Q86Z02)
[7] = biological target: CDK9 CCNT1 (human) (UniProt O60563+P50750)
[8] = biological target: BMX (human) (UniProt P51813)
[9] = biological target: NEK3 (human) (UniProt P51956)
[10] = biological target: STK24 (human) (UniProt Q9Y6E0)
[11] = biological target: GSK3B (human) (UniProt P49841)
[12] = biological target: MAPK10 (human) (UniProt P53779)
[13] = biological target: PDGFRB (human) (UniProt P09619)
[14] = biological target: EPHB1 (human) (UniProt P54762)
[15] = biological target: GSG2 (human) (UniProt Q8TF76)
[16] = biological target: LIMK1 (human) (UniProt P53667)
LIMK1 (human), sequence (P53667 whole entry, looked up): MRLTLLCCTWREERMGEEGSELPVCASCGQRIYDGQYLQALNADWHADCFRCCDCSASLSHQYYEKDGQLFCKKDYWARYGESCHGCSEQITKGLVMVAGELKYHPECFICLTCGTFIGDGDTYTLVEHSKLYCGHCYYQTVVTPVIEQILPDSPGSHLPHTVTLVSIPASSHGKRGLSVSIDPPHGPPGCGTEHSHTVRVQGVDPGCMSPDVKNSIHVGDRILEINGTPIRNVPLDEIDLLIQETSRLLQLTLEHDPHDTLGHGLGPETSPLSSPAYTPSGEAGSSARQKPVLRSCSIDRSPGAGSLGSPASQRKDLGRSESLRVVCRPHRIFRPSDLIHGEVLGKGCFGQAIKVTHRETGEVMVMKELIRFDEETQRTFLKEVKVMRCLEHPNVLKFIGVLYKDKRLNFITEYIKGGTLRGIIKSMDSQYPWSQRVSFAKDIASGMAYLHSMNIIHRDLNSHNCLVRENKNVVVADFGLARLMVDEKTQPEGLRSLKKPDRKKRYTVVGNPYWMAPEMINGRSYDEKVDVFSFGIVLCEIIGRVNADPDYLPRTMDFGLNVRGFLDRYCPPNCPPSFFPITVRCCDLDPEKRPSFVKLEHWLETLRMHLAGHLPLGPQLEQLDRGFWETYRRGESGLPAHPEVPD

[17] = biological target: CAMK2B (human) (UniProt Q13554)
[18] = biological target: PTK2B (human) (UniProt Q14289)
PTK2B (human), sequence (Q14289 whole entry, looked up): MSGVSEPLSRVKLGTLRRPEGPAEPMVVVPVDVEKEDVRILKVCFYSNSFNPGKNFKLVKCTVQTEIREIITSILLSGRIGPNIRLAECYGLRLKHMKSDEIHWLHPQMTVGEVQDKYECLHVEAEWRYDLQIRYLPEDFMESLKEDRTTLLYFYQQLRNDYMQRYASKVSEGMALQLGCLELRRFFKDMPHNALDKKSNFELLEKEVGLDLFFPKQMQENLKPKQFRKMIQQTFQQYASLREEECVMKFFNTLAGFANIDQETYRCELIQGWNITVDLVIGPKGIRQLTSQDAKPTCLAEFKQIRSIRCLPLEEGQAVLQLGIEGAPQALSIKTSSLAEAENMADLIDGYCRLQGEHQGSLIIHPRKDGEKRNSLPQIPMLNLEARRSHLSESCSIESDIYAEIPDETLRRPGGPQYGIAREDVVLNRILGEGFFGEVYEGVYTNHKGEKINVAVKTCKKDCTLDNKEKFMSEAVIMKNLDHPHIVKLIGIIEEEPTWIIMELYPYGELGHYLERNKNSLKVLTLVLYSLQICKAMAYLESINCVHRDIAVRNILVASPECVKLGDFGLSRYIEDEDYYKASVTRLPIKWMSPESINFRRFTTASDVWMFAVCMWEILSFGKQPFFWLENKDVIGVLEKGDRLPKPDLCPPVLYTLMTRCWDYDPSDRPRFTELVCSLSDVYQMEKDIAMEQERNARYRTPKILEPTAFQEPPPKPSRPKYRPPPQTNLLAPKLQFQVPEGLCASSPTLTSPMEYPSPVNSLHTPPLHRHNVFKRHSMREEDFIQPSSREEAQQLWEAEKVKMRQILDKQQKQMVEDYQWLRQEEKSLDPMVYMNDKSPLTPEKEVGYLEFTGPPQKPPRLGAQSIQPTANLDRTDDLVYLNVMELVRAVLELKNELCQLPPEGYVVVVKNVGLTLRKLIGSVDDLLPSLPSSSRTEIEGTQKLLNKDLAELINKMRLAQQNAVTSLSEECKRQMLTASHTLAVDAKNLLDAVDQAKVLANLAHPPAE

[19] = biological target: PRKCB2 (human) (UniProt P05771)
[20] = biological target: CDK2 CCNE1 (human) (UniProt P24864+P24941)
[21] = biological target: FES (human) (UniProt P07332)
[22] = test system: EGFR (human), P00533 [L858R]
[23] = biological target: GRK6 (human) (UniProt P43250)
[24] = biological target: FGFR2 (human) (UniProt P21802)
FGFR2 (human), sequence (P21802 whole entry, looked up): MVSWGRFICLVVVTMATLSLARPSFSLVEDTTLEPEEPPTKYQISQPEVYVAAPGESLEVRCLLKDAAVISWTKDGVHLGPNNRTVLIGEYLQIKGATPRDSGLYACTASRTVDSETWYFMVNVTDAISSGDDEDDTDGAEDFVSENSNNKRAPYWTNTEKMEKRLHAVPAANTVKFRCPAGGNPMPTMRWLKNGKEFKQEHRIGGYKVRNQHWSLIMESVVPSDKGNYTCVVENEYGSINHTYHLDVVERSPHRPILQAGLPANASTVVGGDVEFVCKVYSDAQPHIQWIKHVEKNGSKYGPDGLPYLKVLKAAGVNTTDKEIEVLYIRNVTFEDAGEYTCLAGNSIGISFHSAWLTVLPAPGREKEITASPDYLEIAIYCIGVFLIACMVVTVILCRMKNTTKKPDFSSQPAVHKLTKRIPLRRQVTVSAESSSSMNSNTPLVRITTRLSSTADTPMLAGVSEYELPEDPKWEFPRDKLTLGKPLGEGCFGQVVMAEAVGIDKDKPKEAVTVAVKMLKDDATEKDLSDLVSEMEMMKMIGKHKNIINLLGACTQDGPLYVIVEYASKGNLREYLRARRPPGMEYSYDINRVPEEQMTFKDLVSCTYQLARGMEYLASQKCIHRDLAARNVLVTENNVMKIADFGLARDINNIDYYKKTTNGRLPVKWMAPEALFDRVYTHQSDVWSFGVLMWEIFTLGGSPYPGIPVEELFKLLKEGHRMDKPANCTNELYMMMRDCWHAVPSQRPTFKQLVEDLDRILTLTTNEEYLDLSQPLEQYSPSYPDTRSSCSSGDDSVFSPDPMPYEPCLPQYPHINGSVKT

[25] = biological target: ROCK2 (human) (UniProt O75116)
[26] = biological target: CDK7 CCNH MNAT1 (human) (UniProt P50613+P51948+P51946)
CDK7 CCNH MNAT1 (human), sequence (P50613 whole entry, looked up): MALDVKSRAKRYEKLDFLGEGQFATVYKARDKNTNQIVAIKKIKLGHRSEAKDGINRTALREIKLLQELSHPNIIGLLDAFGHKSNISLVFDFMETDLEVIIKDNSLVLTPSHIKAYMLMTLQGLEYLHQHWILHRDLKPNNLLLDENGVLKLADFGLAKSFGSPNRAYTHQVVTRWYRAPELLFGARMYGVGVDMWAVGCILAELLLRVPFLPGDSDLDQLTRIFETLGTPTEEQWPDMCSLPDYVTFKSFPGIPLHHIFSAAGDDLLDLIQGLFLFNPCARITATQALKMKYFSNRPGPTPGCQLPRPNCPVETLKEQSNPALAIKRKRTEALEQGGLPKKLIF
CDK7 CCNH MNAT1 (human), sequence (P51946 whole entry, looked up): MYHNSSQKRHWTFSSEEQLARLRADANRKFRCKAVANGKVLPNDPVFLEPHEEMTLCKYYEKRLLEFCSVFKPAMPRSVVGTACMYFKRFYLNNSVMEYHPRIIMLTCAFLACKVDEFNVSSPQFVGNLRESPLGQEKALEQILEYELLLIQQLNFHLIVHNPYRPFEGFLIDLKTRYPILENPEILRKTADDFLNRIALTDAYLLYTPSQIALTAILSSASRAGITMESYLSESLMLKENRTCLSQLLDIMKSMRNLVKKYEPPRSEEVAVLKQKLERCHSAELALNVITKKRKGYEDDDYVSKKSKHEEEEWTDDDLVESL
CDK7 CCNH MNAT1 (human), sequence (P51948 whole entry, looked up): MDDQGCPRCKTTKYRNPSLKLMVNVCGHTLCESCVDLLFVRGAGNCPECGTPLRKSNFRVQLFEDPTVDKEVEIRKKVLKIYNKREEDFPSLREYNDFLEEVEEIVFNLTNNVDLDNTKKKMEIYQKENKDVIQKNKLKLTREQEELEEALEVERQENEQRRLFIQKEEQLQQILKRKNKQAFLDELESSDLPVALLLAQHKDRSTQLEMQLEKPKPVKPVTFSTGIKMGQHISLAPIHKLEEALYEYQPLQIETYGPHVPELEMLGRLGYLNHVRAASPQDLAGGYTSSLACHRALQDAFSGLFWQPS

[27] = biological target: PRKD1 (human) (UniProt Q15139)
[28] = biological target: LYN (human) (UniProt P07948)
LYN (human), sequence (P07948 whole entry, looked up): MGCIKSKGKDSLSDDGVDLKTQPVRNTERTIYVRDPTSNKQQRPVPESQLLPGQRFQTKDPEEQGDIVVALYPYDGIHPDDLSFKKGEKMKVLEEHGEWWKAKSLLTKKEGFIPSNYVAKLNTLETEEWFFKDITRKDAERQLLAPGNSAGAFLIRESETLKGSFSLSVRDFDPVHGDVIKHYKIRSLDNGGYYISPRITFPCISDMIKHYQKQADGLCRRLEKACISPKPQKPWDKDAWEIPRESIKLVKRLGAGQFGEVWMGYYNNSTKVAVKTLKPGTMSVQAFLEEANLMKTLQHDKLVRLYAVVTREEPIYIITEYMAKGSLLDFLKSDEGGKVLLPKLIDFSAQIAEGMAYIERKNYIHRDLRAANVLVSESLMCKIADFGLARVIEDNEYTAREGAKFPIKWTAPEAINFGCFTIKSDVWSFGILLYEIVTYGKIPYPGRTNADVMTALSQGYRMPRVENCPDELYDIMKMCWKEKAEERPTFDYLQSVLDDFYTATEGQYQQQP

[29] = biological target: CSNK2A2 (human) (UniProt P19784)
[30] = biological target: MAP2K6 (human) (UniProt P52564)
[31] = test system: EGFR (human), P00533 [T790M/L858R]
[32] = biological target: HIPK3 (human) (UniProt Q9H422)
[33] = biological target: EPHA1 (human) (UniProt P21709)
[34] = biological target: CHEK2 (human) (UniProt O96017)
[35] = biological target: WNK2 (human) (UniProt Q9Y3S1)
[36] = biological target: RPS6KA2 KD1 KD2 (human) (UniProt Q15349)
[37] = biological target: CSNK1G3 (human) (UniProt Q9Y6M4)
[38] = biological target: SIK1 (human) (UniProt P57059)
[39] = biological target: DAPK2 (human) (UniProt Q9UIK4)
DAPK2 (human), sequence (Q9UIK4 whole entry, looked up): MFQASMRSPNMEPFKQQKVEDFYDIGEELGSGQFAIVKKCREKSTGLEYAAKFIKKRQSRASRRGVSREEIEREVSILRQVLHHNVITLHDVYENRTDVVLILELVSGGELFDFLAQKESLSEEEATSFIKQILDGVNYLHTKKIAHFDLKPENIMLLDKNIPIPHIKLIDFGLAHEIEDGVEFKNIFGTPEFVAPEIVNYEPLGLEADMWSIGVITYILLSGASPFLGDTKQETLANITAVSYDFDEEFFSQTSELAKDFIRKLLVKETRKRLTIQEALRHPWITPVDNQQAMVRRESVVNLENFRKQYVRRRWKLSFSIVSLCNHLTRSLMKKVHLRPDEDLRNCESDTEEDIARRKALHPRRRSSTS

[40] = biological target: EPHA7 (human) (UniProt Q15375)

MAPKAPK3 (human), sequence (Q16644 whole entry, looked up): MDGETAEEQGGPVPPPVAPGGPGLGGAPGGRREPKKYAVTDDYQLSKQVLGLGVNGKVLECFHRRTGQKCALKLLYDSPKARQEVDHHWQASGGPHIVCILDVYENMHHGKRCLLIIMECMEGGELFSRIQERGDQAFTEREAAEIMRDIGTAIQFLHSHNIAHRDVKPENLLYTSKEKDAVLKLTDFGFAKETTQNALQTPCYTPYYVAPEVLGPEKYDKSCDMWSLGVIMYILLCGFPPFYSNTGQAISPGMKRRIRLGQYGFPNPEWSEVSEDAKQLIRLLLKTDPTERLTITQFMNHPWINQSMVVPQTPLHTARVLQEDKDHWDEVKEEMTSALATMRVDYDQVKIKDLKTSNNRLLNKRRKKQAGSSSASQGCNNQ

**Q.** With `O=C(N[C@@H](COc1ccc2[nH]c(=O)[nH]c2c1)c1ccccc1)c1cccn(Cc2ccc(F)c(F)c2)c1=O` as the compound, how does the residual activity ([1]; compound 10.0 µM) read?
**A.** 89%

**Q.** And the residual activity ([2]; compound 10.0 µM)?
**A.** 99%

**Q.** And the residual activity ([3]; compound 10.0 µM)?
**A.** 100%

**Q.** What about the residual activity ([4]; compound 10.0 µM) of the same compound?
**A.** 107%

**Q.** What about the residual activity ([5]; compound 10.0 µM) of the same compound?
**A.** 102%

**Q.** And the residual activity ([6]; compound 10.0 µM)?
**A.** 99%

**Q.** And the residual activity ([7]; compound 10.0 µM)?
**A.** 102%

**Q.** What about the residual activity ([8]; compound 10.0 µM) of the same compound?
**A.** 139%

**Q.** And the residual activity ([9]; compound 10.0 µM)?
**A.** 104%

**Q.** And the residual activity ([10]; compound 10.0 µM)?
**A.** 100%

**Q.** And the residual activity ([11]; compound 10.0 µM)?
**A.** 92%

**Q.** And the residual activity ([12]; compound 10.0 µM)?
**A.** 105%

**Q.** And the residual activity ([13]; compound 10.0 µM)?
**A.** 113%

**Q.** What about the residual activity ([14]; compound 10.0 µM) of the same compound?
**A.** 104%

**Q.** What about the residual activity ([15]; compound 10.0 µM) of the same compound?
**A.** 74%

**Q.** What about the residual activity ([16]; compound 10.0 µM) of the same compound?
**A.** 97%

**Q.** And the residual activity ([17]; compound 10.0 µM)?
**A.** 105%

**Q.** And the residual activity ([18]; compound 10.0 µM)?
**A.** 98%

**Q.** What about the residual activity ([19]; compound 10.0 µM) of the same compound?
**A.** 96%

**Q.** And the residual activity ([20]; compound 10.0 µM)?
**A.** 104%

**Q.** And the residual activity ([21]; compound 10.0 µM)?
**A.** 122%

**Q.** And the residual activity ([22]; compound 10.0 µM)?
**A.** 102%

**Q.** What about the residual activity ([23]; compound 10.0 µM) of the same compound?
**A.** 108%

**Q.** And the residual activity ([24]; compound 10.0 µM)?
**A.** 92%

**Q.** What about the residual activity ([25]; compound 10.0 µM) of the same compound?
**A.** 109%

**Q.** And the residual activity ([26]; compound 10.0 µM)?
**A.** 95%

**Q.** And the residual activity ([27]; compound 10.0 µM)?
**A.** 100%

**Q.** And the residual activity ([28]; compound 10.0 µM)?
**A.** 115%

**Q.** What about the residual activity ([29]; compound 10.0 µM) of the same compound?
**A.** 105%

**Q.** What about the residual activity ([30]; compound 10.0 µM) of the same compound?
**A.** 115%

**Q.** What about the residual activity ([31]; compound 10.0 µM) of the same compound?
**A.** 99%

**Q.** And the residual activity ([32]; compound 10.0 µM)?
**A.** 110%

**Q.** What about the residual activity ([33]; compound 10.0 µM) of the same compound?
**A.** 107%

**Q.** And the residual activity ([34]; compound 10.0 µM)?
**A.** 132%

**Q.** And the residual activity ([35]; compound 10.0 µM)?
**A.** 104%

**Q.** And the residual activity ([36]; compound 10.0 µM)?
**A.** 102%

**Q.** What about the residual activity ([37]; compound 10.0 µM) of the same compound?
**A.** 99%

**Q.** And the residual activity ([38]; compound 10.0 µM)?
**A.** 102%

**Q.** What about the residual activity ([39]; compound 10.0 µM) of the same compound?
**A.** 94%

**Q.** What about the residual activity ([40]; compound 10.0 µM) of the same compound?
**A.** 103%

**Q.** How did the residual activity ([2]; compound 1.0 µM) turn out when `Cc1n[nH]c2c1c(=O)n(CCCN)c1ccc(Cl)cc21` was run?
**A.** 90%

**Q.** What about the residual activity ([5]; compound 1.0 µM) of the same compound?
**A.** 105%

**Q.** And the residual activity ([8]; compound 1.0 µM)?
**A.** 94%

**Q.** What about the residual activity ([11]; compound 1.0 µM) of the same compound?
**A.** 105%

**Q.** And the residual activity ([12]; compound 1.0 µM)?
**A.** 110%

**Q.** What about the residual activity ([13]; compound 1.0 µM) of the same compound?
**A.** 108%

**Q.** What about the residual activity ([16]; compound 1.0 µM) of the same compound?
**A.** 120%

**Q.** And the residual activity ([18]; compound 1.0 µM)?
**A.** 21%

**Q.** What about the residual activity ([21]; compound 1.0 µM) of the same compound?
**A.** 41%

**Q.** And the residual activity ([22]; compound 1.0 µM)?
**A.** 105%

**Q.** And the residual activity ([24]; compound 1.0 µM)?
**A.** 99%

**Q.** And the residual activity ([25]; compound 1.0 µM)?
**A.** 87%

**Q.** And the residual activity ([26]; compound 1.0 µM)?
**A.** 55%

**Q.** And the residual activity ([27]; compound 1.0 µM)?
**A.** 20%

**Q.** And the residual activity ([28]; compound 1.0 µM)?
**A.** 99%

**Q.** And the residual activity ([30]; compound 1.0 µM)?
**A.** 106%

**Q.** What about the residual activity ([34]; compound 1.0 µM) of the same compound?
**A.** 5%

**Q.** And the residual activity ([36]; compound 1.0 µM)?
**A.** 2%

**Q.** And the residual activity ([38]; compound 1.0 µM)?
**A.** 18%

**Q.** What about the residual activity ([39]; compound 1.0 µM) of the same compound?
**A.** 90%

**Q.** For `O=C(NCCCNc1nc(Nc2cccc(NC(=O)N3CCCC3)c2)ncc1I)c1cccs1`, which residual activity ([1]; compound 1.0 µM) is on record?
**A.** 104%

**Q.** And the residual activity ([2]; compound 1.0 µM)?
**A.** 103%

**Q.** And the residual activity ([3]; compound 1.0 µM)?
**A.** 91%

**Q.** What about the residual activity ([4]; compound 1.0 µM) of the same compound?
**A.** 82%

**Q.** And the residual activity ([5]; compound 1.0 µM)?
**A.** 107%

**Q.** What about the residual activity ([6]; compound 1.0 µM) of the same compound?
**A.** 82%

**Q.** And the residual activity ([7]; compound 1.0 µM)?
**A.** 70%

**Q.** And the residual activity ([8]; compound 1.0 µM)?
**A.** 94%

**Q.** And the residual activity ([9]; compound 1.0 µM)?
**A.** 99%

**Q.** What about the residual activity ([10]; compound 1.0 µM) of the same compound?
**A.** 195%

**Q.** And the residual activity ([11]; compound 1.0 µM)?
**A.** 86%

**Q.** What about the residual activity ([12]; compound 1.0 µM) of the same compound?
**A.** 68%

**Q.** And the residual activity ([13]; compound 1.0 µM)?
**A.** 97%

**Q.** And the residual activity ([14]; compound 1.0 µM)?
**A.** 101%

**Q.** And the residual activity ([15]; compound 1.0 µM)?
**A.** 87%

**Q.** What about the residual activity ([16]; compound 1.0 µM) of the same compound?
**A.** 34%

**Q.** And the residual activity ([17]; compound 1.0 µM)?
**A.** 20%

**Q.** What about the residual activity ([18]; compound 1.0 µM) of the same compound?
**A.** 85%

**Q.** And the residual activity ([19]; compound 1.0 µM)?
**A.** 106%

**Q.** What about the residual activity ([20]; compound 1.0 µM) of the same compound?
**A.** 107%

**Q.** And the residual activity ([21]; compound 1.0 µM)?
**A.** 96%

**Q.** What about the residual activity ([22]; compound 1.0 µM) of the same compound?
**A.** 102%

**Q.** And the residual activity ([23]; compound 1.0 µM)?
**A.** 100%

**Q.** And the residual activity ([24]; compound 1.0 µM)?
**A.** 86%

**Q.** What about the residual activity ([25]; compound 1.0 µM) of the same compound?
**A.** 59%

**Q.** What about the residual activity ([26]; compound 1.0 µM) of the same compound?
**A.** 75%

**Q.** What about the residual activity ([27]; compound 1.0 µM) of the same compound?
**A.** 53%

**Q.** What about the residual activity ([28]; compound 1.0 µM) of the same compound?
**A.** 96%

**Q.** And the residual activity ([29]; compound 1.0 µM)?
**A.** 109%

**Q.** What about the residual activity ([30]; compound 1.0 µM) of the same compound?
**A.** 108%

**Q.** And the residual activity ([31]; compound 1.0 µM)?
**A.** 103%

**Q.** And the residual activity ([32]; compound 1.0 µM)?
**A.** 107%

**Q.** What about the residual activity ([33]; compound 1.0 µM) of the same compound?
**A.** 82%

**Q.** And the residual activity ([34]; compound 1.0 µM)?
**A.** 60%

**Q.** What about the residual activity ([35]; compound 1.0 µM) of the same compound?
**A.** 95%

**Q.** And the residual activity ([36]; compound 1.0 µM)?
**A.** 120%

**Q.** And the residual activity ([37]; compound 1.0 µM)?
**A.** 87%

**Q.** What about the residual activity ([38]; compound 1.0 µM) of the same compound?
**A.** 12%

**Q.** And the residual activity ([39]; compound 1.0 µM)?
**A.** 100%

**Q.** What about the residual activity ([40]; compound 1.0 µM) of the same compound?
**A.** 131%
